Data as given in patent publication US20050186137A1, “Novelty-induced hypophagia-based assays for identifying agents to treat anxiety and depression” (priority 2003, published 2005).

Tests used:
Format in all cases: in vivo, mouse
[1] = tested on: BALB/cJ, DBA/2J, C57BL/6J, and 129SvEv mice; assay: Modified forced swim test, strain comparison
Experimental: (§1) For the strain comparison study, 36 male mice of four strains (BALB/cJ, DBA/2J, C57BL/6J, 129SvEv) were subjects for a total of 144 mice. Mice were tested in the OF beginning on day 30 or 33 of chronic fluoxetine treatment. Mice were tested for 15 min on three consecutive days to maximize activity levels. Mice were then tested in the modified FST on day 36 or 37.
(§2) Modified forced swim test: Mice were placed into 19 cm diameter plastic buckets which were 23 cm deep filled with 23°-25° C. water, and videotaped for six minutes. Only the last four minutes were scored for four measures: swimming, immobility, climbing, or other. The predominant behavior was recorded every 5 sec. For chronic and subchronic fluoxetine studies in BALB/cJ mice, mice were pre-exposed to the FST for 6 min 24 hours before test day to increase sensitivity for detecting antidepressant behavioral effects (Borsini et al., 1989).
(§3) Modified forced swim test: Two-factor ANOVAs with fluoxetine as a between-subjects factor and block (1 min intervals) as a within-subject factor were applied to three different measures: swimming, immobility, and climbing. Significant main effects of fluoxetine and interactions were resolved using post-hoc ANOVAs with adjusted p-values, and/or Newman-Keuls post-hoc tests.

[2] = tested on: BALB/cJ, DBA/2J, C57BL/6J, and 129SvEv mice; assay: Open field test, strain comparison; conditions: for center measures: chronic fluoxetine 5 or 10 mg/kg/day
Experimental: as §1
Open field test: Motor activity was quantified in four Plexiglas OF boxes 43 x 43 cm (MED Associates, Georgia, Vt.). Two sets of 16 pulse-modulated infrared photobeams were placed on opposite walls 2.5-cm apart to record x-y ambulatory movements. Activity chambers were computer interfaced for data sampling at 100-ms resolution. The computer defined grid lines that divided each OF into center and surround regions, with each of four lines being 11 cm from each wall. Dependent measures were the number of entries into the center, the distance traveled in the center, total time spent in the center, and distance traveled in the center divided by total distance traveled. Overall motor activity was quantified as the total distance traveled (cm).
Open field test: For Experiment 1, two-factor ANOVAs with fluoxetine as a between-subject factor and day as a within-subject factor were applied to five measures for each strain: time spent in the center, distance traveled in the center, center distance/total distance traveled, entries into the center, and total distance traveled. Main effects of fluoxetine or significant interactions of fluoxetine and day were resolved using post-hoc ANOVAs with adjusted p-values and/or Newman-Keuls post-hoc tests. Subchronic and chronic experiments in Balb/cJ mice were analyzed using one-way ANOVAs with fluoxetine as a between-subjects factor and Newman-Keuls post-hoc tests for the same variables. Because data deviated substantially from a normal distribution due to low activity levels of Balb/cJ mice, analyses were applied to log transformed data.
Remaining significant effects of fluoxetine indicate independence between measures of locomotor activity and center measures.

BALB/cJ mice [3] = assay: Novelty induced hypophagia test
Experimental: (§4) For chronic fluoxetine studies in BALB/cJ mice, 60 male BALB/cJ mice were tested in the OF for 30 min on days 19 or 20 of chronic fluoxetine treatment. Mice were then pretested and tested in the modified FST on days 21 and 22, respectively. Animals were then allowed to adapt to being singly housed, and were trained for NIH on days 25-27. Home cage and novel cage testing occurred on days 28 and 29, respectively. Mice were then assessed for PPI on days 34 or 35.
(§5) Studies of subchronic fluoxetine were conducted using separate groups of 60 male BALB/cJ mice to prevent fluoxetine treatment from exceeding one week. One group was tested in the OF after one day of subchronic fluoxetine treatment. Mice were then pretested after 6 and tested after 7 days of subchronic fluoxetine treatment in the modified FST. A second group of BALB/cJ mice began fluoxetine treatment after being singly housed. They were then tested in the NIH test after 4 (home) and 5 (novel) days of subchronic fluoxetine treatment. A third group was tested for PPI after one or two days of subchronic fluoxetine treatment.
Novelty induced hypophagia test: Mice were singly housed several days before training began. For three consecutive days of training, mice were presented with diluted (1:3; milk:water) sweetened condensed milk (Carnation) in pipettes in the home cage for 30 min. Testing occurred on days 4 and 5 when mice were presented with the milk, and latency to drink and the volume consumed were recorded every five minutes for 30 min. On day 4, testing occurred in the home cage under dim lighting (approx. 50 lux). Mice were briefly removed from the cage to position pipettes, and testing began when mice were returned to their cages. On day 5, mice were placed into new cages of the same dimensions without shavings under bright lighting (approx. 1200 lux). White paper was placed under cages to enhance aversiveness on day 5.
Novelty induced hypophagia test: For latency scores, a maximum cut-off of 600 sec was used. Two-factor ANOVAs with home/novel cage condition as a within-subjects factor and fluoxetine as a between-subjects factor were applied to latency values. Main effects of fluoxetine or significant interactions of fluoxetine and home/novel cage condition were resolved using post-hoc ANOVAs with adjusted p-values and/or Newman-Keuls post-hoc tests. For consumption data, a three-factor ANOVA with block (5 min intervals) and home/novel cage condition as within-subjects factors and fluoxetine as a between-subjects factor was used to assess whether the novel cage was sufficiently anxiogenic to reduce consumption. Two-factor ANOVAs with block as a within-subjects factor and fluoxetine as a between-subjects factor were applied separately to consumption values for the home and the novel cage. Main effects of fluoxetine or significant interactions were resolved using post-hoc ANOVAs with adjusted p-values and/or Newman-Keuls post-hoc tests.

BALB/cJ mice [4] = assay: Modified forced swim test, chronic vs. subchronic fluoxetine
Experimental: as §4, §5, §2, §3

[5] = BALB/cJ mice, chronic 10 mg/kg/day, relative to 5 mg/kg/day and controls
[6] = 129SvEv mice, chronic 5 and 10 mg/kg/day, day 1, relative to controls
[7] = subchronic (4-5 days) fluoxetine

Question: How did the immobility [1, 5] turn out when `CNCCC(Oc1ccc(C(F)(F)F)cc1)c1ccccc1` (stereo not drawn) [fluoxetine] was run?
Answer: decreased immobility

Question: What about the swimming [1, 5] of the same compound?
Answer: increased swimming

Question: What about the “sensitivity to chronic treatment in the modified FST across strains” value ([1]; BALB/cJ, DBA/2J, C57BL/6J, 129SvEv, chronic 5 or 10 mg/kg/day) of the same compound?
Answer: BALB/cJ was the only strain showing sensitivity

Question: What about the climbing ([1]; chronic fluoxetine 5 or 10 mg/kg/day) of the same compound?
Answer: No effects

Question: What about the locomotor activity ([2]; 129SvEv mice, chronic 10 mg/kg/day, relative to both other doses on day 1 and to 5 mg/kg/day on day 3) of the same compound?
Answer: reduced locomotor activity

Question: What about the “time in the center” value ([2]; 129SvEv mice, chronic 5 and 10 mg/kg/day) of the same compound?
Answer: reduced time in the center relative to control

Question: What about the center entries [2, 6] of the same compound?
Answer: reduced

Question: What about the “distance traveled in the center” value [2, 6] of the same compound?
Answer: reduced the distance traveled in the center

Question: What about the center measures ([2]; BALB/cJ mice) of the same compound?
Answer: produced no changes

Question: And the locomotor activity ([2]; BALB/cJ mice, chronic fluoxetine 5 or 10 mg/kg/day in drinking water, three consecutive days)?
Answer: no changes in locomotor activity

Question: What about the locomotor activity ([2]; C57BL/6J mice, chronic 10 mg/kg/day, relative to controls) of the same compound?
Answer: reduced locomotor activity overall

Question: What about the “entries into the center” value ([2]; C57BL/6J mice, chronic 5 and 10 mg/kg/day, relative to control) of the same compound?
Answer: overall reduction in the number of entries into the center

Question: And the center measures ([2]; DBA/2J mice)?
Answer: produced no changes

Question: What about the locomotor activity ([2]; DBA/2J mice, chronic fluoxetine (10 mg/kg/day vs controls on day 3)) of the same compound?
Answer: trend towards increased locomotor activity

Question: What about the center/total distance traveled ([2]; any of the four strains, chronic fluoxetine) of the same compound?
Answer: no effects

Question: And the “milk consumption in the home cage, first block (0-5 min)” value (BALB/cJ mice [3]; chronic 25 mg/kg/day)?
Answer: increased milk consumption compared to control

Question: What about the “milk consumption in the novel cage, first block (0-5 min)” value (BALB/cJ mice [3]; chronic 18 and 25 mg/kg/day) of the same compound?
Answer: increased milk consumption compared to the 0 and 10 mg/kg/day doses

Question: What about the “latency difference scores (novel minus home)” value (BALB/cJ mice [3]; chronic 18 and 25 mg/kg/day vs control) of the same compound?
Answer: control animals exhibited significantly larger difference scores

Question: What about the “latency to drink milk in the home cage” value (BALB/cJ mice [3]; chronic fluoxetine) of the same compound?
Answer: reduced the latency to drink milk in the novel, but not the home cage

Question: And the “latency to drink in the novel cage” value (BALB/cJ mice [3]; chronic fluoxetine, all three doses (10, 18, 25 mg/kg/day))?
Answer: reduced the latency to drink relative to control in a dose-related fashion

Question: What about the “consumption in the home cage, post-hoc tests” value (BALB/cJ mice [3]; subchronic (4-5 days) 25 mg/kg/day) of the same compound?
Answer: only a trend for the 25 mg/kg/day dose to increase consumption relative to control

Question: What about the latency to drink (BALB/cJ mice [3]; [7]) of the same compound?
Answer: no effect on any measure of latency

Question: And the milk consumption (BALB/cJ mice [3]; [7])?
Answer: no effect

Question: And the “effect in the modified FST” value (BALB/cJ mice [4]; acute administration of 10 mg/kg/day in the drinking water, expected)?
Answer: no effect

Question: What about the climbing (BALB/cJ mice [4]; chronic 25 mg/kg/day) of the same compound?
Answer: increased climbing relative to all other doses

Question: And the swimming (BALB/cJ mice [4]; chronic 10 and 18 mg/kg/day, compared to 0 and 25 mg/kg/day)?
Answer: increases in swimming

Question: What about the immobility (BALB/cJ mice [4]; chronic fluoxetine) of the same compound?
Answer: No significant effects

Question: What about the climbing (BALB/cJ mice [4]; subchronic (7 days) 18 mg/kg/day relative to the 0 dose) of the same compound?
Answer: increase in climbing

Question: What about the immobility (BALB/cJ mice [4]; subchronic (7 days) fluoxetine) of the same compound?
Answer: no effect

Question: And the swimming (BALB/cJ mice [4]; subchronic (7 days) fluoxetine)?
Answer: no effect
